Key:
[1] = system: bronchoconstricting effects of a standard dose of acetylcholine; experiment: Bronchodilation by aerosol inhalation (method of Rosenthale et al.): inhibition of the bronchoconstricting effects of a standard dose of acetylcholine; format: in vivo; settings: guinea pig
Excerpt: In using the compounds of the invention to produce bronchodilating effects in warm-blooded animals, they may be administered in a variety of dosage forms: oral, injectable, and aerosol inhalation. Aerosol inhalation is a preferred method because of its rapid onset of action, great potency, and specificity of action. The particular dosage to obtain the bronchodilating effect will vary with the particular compound employed, the particular animal involved, and the degree of bronchodilation desired. In the guinea pig, by aerosol inhalation, the dose to produce bronchodilation is from about 1.5 micrograms to about 100 micrograms, and preferably from about 1.5 to about 50 micrograms. The bronchodilation produced upon aerosol inhalation can be observed by the method of Rosenthale et al., J. Pharmacol. Exp. Ther., 178, 541 (1971). Using this procedure the following result was obtained.

[2] = Hypotension in the anesthetized dog, intravenous route; format: in vivo; settings: dose 100 μg/kg
Procedure: Thus in the anesthetized dog by the intravenous route the dose to produce hypotension is from about 1 μg/kg. to about 200 μg/kg. and preferably from about 10 μg/kg. to about 100 μg/kg. Using this procedure the following results were obtained.

[3] = system: ADP induced platelet aggregation (human platelet rich plasma); experiment: ADP induced platelet aggregation in platelet rich plasma (modification of Born and Cross); format: cell-based; settings: human PRP, in vitro; for IC50: Platelet, ADP induced (2 to 4 μM ADP), read-out: Concentration which inhibits 50% of platelet aggregation
Procedure: Platelet aggregation is the initial step in thrombus formation and it is considered that compounds which prevent aggregation or reduce platelet adhesiveness may inhibit the initiation of the arteriosclerotic process. The effect of drugs on aggregation is measured in platelet rich plasma (PRP) containing adenosine diphosphate (ADP) which markedly increases aggregation in vitro and may be a physiological agent for doing so in vivo.
Human blood is collected from fasted normal blood donors in siliconized 50 ml. Vacutainers that contain 3.8% sodium citrate. Centrifugation at 500 G. for 3 minutes at 5° C. separates the red blood cells from the PRP. The supernatant PRP is pipetted off and the remainder is centrifuged at 1000 G. for 10 minutes at 25° C. to obtain platelet poor plasma for standardization of the automated Payton aggregometer. In the running of the platelet aggregation test a cell containing 1.0 ml. of PRP is stirred at 1,100 rpm and the test compound is added in 0.2 ml. of buffered saline to give an initial concentration of 5 × 10^-^3 M, or 5 × 10^-^4 M. After 3 minutes, a concentration of ADP predetermined to yield marked platelet aggregation (2 to 4 μM) is added in 0.1 ml. of buffered saline. The curve of light transmission at 610 mμ is followed for 6 minutes. Compounds found to be active at the initial concentration are run at lower concentrations. The results are expressed as the concentration which gives 50% inhibition of the ADP induced aggregation.

SMILES | Percent Inhibition of the bronchoconstricting effects of a standard dose of acetylcholine ([1]; dose 1.5 μg) [%] | Δb.p. [2] [mm. Hg] | IC50 [3] [µM] | Inhibition of ADP induced platelet aggregation (at concentration) ([3]; at 1.5 × 10^-^6 M) [%] | Percent Inhibition of the bronchoconstricting effects of a standard dose of acetylcholine ([1]; dose 15 μg) [%] | Inhibition of ADP induced platelet aggregation (at concentration) ([3]; at 2.6 × 10^-^6 M) [%]
CCCCC[C@H](O)/C=C/[C@H]1[C@H](O)C=C[C@@H]1CCCCCCC(=O)O [4α-hydroxy-5β-[(3S)-3-hydroxy-trans-1-octenyl]-2-cyclopentene-1α-heptanoic acid] | 60 | -34 | 1.2 | 63 |  | 
CCCCC[C@H](O)/C=C/[C@H]1[C@H](O)C=C[C@@H]1C/C=C\CCCC(=O)O [7-(4α-hydroxy-5β-[(3S)-3-hydroxy-trans-1-octenyl]-2-cyclopenten-1α-yl)-cis-5-heptenoic acid] |  |  | 2.6 |  | 44 | 50

Source: patent US3933904A, “11,15-Dihydroxy-9,13-prostadienoic acid” (American Home Products Corporation, priority 1974, dated 1976)
